Consider five compounds from ChEMBL document CHEMBL2074205, “Inhibitory potencies of 1,4-dihydropyridine calcium antagonists to P-glycoprotein-mediated transport: comparison with the effects on CYP3A4” (Pharm Res, 2000).

What all share (assay type): functional, cell-based
Experiment [1] has as its target T1, ATP-dependent translocase ABCB1 (Homo sapiens, UniProt P08183). Briefly: TP_TRANSPORTER: inhibition of Daunorubicin transepithelial transport (basal to apical) (Daunorubicin: 0.035 uM) in MDR1-expressing LLC-PK1 cells.
The target of experiment [2] is T1, ATP-dependent translocase ABCB1. Briefly: TP_TRANSPORTER: inhibition of Daunorubicin transepithelial transport (basal to apical), (-)-efonidipine (Daunorubicin: 0.035 uM) in MDR1-expressing LLC-PK1 cells.
The target is the same in experiment [3]. Briefly: TP_TRANSPORTER: inhibition of Daunorubicin transepithelial transport (basal to apical), (+)-efonidipine (Daunorubicin: 0.035 uM) in MDR1-expressing LLC-PK1 cells.

T1 sequence (P08183 whole entry): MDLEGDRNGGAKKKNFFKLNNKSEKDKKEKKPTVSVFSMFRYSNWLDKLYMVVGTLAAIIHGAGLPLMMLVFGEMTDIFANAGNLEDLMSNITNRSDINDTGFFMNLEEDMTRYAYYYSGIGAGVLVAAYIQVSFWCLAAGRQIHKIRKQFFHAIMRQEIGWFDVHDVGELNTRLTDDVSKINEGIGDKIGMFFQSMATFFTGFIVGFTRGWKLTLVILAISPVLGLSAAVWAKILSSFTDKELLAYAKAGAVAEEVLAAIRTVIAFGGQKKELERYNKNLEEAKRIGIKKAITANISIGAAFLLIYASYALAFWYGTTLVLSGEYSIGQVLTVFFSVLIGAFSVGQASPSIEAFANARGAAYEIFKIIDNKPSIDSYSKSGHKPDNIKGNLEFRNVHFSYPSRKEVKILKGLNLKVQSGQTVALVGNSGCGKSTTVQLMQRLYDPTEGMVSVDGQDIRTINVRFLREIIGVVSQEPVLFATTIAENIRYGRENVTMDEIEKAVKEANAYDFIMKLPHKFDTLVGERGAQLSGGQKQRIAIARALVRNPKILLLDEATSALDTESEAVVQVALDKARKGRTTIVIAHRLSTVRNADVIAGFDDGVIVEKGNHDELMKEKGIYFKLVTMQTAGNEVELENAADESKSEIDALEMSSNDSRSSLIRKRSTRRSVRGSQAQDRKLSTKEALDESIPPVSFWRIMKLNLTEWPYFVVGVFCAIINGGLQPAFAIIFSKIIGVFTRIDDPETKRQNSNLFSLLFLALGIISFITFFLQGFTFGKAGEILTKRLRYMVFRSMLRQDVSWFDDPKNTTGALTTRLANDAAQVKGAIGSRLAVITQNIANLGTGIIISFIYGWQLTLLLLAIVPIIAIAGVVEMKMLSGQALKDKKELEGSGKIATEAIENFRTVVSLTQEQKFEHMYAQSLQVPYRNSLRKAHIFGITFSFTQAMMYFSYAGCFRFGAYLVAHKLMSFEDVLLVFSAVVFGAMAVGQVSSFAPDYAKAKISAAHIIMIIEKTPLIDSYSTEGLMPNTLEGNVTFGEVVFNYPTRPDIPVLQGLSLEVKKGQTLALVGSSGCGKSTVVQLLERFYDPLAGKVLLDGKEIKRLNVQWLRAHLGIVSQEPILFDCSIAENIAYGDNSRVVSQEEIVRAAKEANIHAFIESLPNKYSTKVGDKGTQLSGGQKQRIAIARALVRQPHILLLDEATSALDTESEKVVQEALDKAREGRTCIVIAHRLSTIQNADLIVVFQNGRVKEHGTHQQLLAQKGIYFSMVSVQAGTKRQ

Consider `COC(=O)C1=C(C)NC(C)=C(C(=O)O[C@@H]2CCCN(Cc3ccccc3)C2)C1c1cccc([N+](=O)[O-])c1` (stereo partly specified), for which the IC50 in experiment [1] was 9.5 µM.

`CCOC(=O)C1=C(COCCN)NC(C)=C(C(=O)OC)C1c1ccccc1Cl` (stereo unspecified) [AMLODIPINE] showed an IC50 in experiment [1] of 22 µM.

In experiment [1], `COC(=O)C1=C(C)NC(C)=C(C(=O)O[C@H]2CCN(Cc3ccccc3)C2)[C@H]1c1cccc([N+](=O)[O-])c1` [BARNIDIPINE] came in with an IC50 of 8.6 µM.

As to `CC1=C(C(=O)OCCN(Cc2ccccc2)c2ccccc2)C(c2cccc([N+](=O)[O-])c2)C(P2(=O)OCC(C)(C)CO2)=C(C)N1` (stereo unspecified) [EFONIDIPINE], the IC50 in experiment [2] came to 17.3 µM; in experiment [3], 20.6 µM.

`COC(=O)C1=C(C)NC(C)=C(C(=O)OCCN2CCN(C(c3ccccc3)c3ccccc3)CC2)C1c1cccc([N+](=O)[O-])c1` (stereo unspecified) [MANIDIPINE 6300] yielded an IC50 in experiment [1] of 4.6 µM.
